Test results taken from patent US10828275B2, “Selective targeting of procoagulant platelets” (NewSouth Innovations Pty Limited, priority 2014, dated 2020).
Residues, ends and D or L forms follow the SMILES beside them. *: point of attachment. Cbz = O=C(OCc1ccccc1)*; CH2F = FC*

Columns and labels:
stimulated platelets = test: Kinetics of GSAO-AF647 labelling by time lapse flow cytometry; type: cell-based, human
Method: (§1) FIG. 2. GSAO rapidly enters the activated platelet subpopulation via an organic anion-transporting polypeptide. A. The kinetics of labeling of stimulated platelets with GSAO-AF647 was measured by time lapse flow cytometry. Flow plots are representative of n≥3 separate experiments, and bars and data points are from n≥3 separate experiments. *p<0.05, ****p<0.0001. B-C. […] DIDS inhibited GSAO labelling of P-selectin+ activated platelets at a half-maximal concentration of ˜30 μM. The data points and errors are the mean±range of 1-5 experiments.
The rate of GSAO+ platelet generation after agonist exposure was measured using time lapse flow cytometry. Results are reported for GSAO+ events based on lead in time prior to agonist exposure threshold.

washed human platelets [1] = test: GSAO-AF647 labelling and P-selectin exposure of washed platelets (flow cytometry); type: cell-based; settings: thrombin 0.1 units/mL, collagen 5 μg/mL
Method: FIG. 1. GSAO labels a subpopulation of activated platelets. A. Structure of GSAO and site of conjugation of AF647, Oregon Green or biotin. B. Washed human platelets were stimulated with calcium ionophore (1 μM) and activation and plasma membrane compromise measured by flow cytometry. […] C. […] E. Washed human platelets were stimulated with collagen or collagen-related peptide and co-labeling with P-selectin and GSAO-AF647 measured by flow cytometry.
Calcium ionophore treatment of platelets leads to a sustained rise in intracellular calcium and surface elaboration of phosphatidylserine, which are features of both the procoagulant and necrotic phenotype (Bevers et al., 1982). Washed human platelets were treated with calcium ionophore and labeled with GSAO-AF647 and an antibody against the α-granule marker, P-selectin.
To determine whether GSAO labeling reflects this agonist profile, washed human platelets were stimulated with thrombin, collagen, or both thrombin and collagen. […] To determine if signalling through the collagen receptor, GPVI, was sufficient to generate the GSAO+ phenotype, the maximal proportion of GSAO+ platelets generated by collagen was compared with the GPVI specific activator, collagen related peptide.
The relationship between the activated and procoagulant phenotype of platelets remains controversial (Dale et al., 2002; Abaeva et al., 2013). Procoagulant platelets are characterised by presence of phosphatidylserine on the platelet surface, surface binding of plasma derived activated clotting factors, ability to generate thrombin and promotion of fibrin formation. Regardless of the agonist stimulus, 100% of GSAO+ platelets were positive for α-granule P-selectin, which implies that α-granule release is a prerequisite for GSAO labeling after agonist stimulation (FIG. 1). […] Of note, a subpopulation of GSAO− platelets also bound annexin V so platelet necrosis is not required for exposure of phosphatidylserine.

platelets in mouse blood = test: Whole blood assay for procoagulant platelet potential, mouse blood; type: cell-based; settings: thrombin 2 U/mL, CRP 500 ng/mL; n=3 C57Bl6 bloods
Method: FIG. 14. Assay for procoagulant platelet potential in mouse blood. […] Bars and errors are mean±SEM of n=3 C57B16 bloods. One-way ANOVA. **, p<0.01; ****, p<0.0001.
(§2) Blood from healthy human volunteers was drawn from an antecubital fossa vein using a 21-gauge needle into evacuated sterile collection tubes containing 0.109 M sodium citrate. Following no or minimal tourniquet application, the initial 2 mL of blood was discarded to avoid pre-analytical activation of platelets. The tube was gently mixed by inversion six times. Murine blood samples were collected by cardiac puncture under isoflurane anesthesia. Following midline abdominal and bilateral subcostal surgical incisions to expose the heart, blood was drawn from the left ventricle through a 25G needle into a 1 mL syringe containing sodium citrate (0.109 M) resulting in a blood to citrate ratio of 9:1. The needle was removed and the blood was gently expelled from the syringe into a sterile microcentrifuge tube and mixed gently by pipetting up and down 5 times.
Following collection, tubes were kept upright at room temperature and blood was assayed within 15 min of collection. […]
(§3) Fixed cells were analyzed by flow cytometry 1 to 3 h after fixation at an average event rate of 2000 events per sec in an LSRFortessa flow cytometer, equipped with either four (405 nm, 488 nm, 561 nm and 640 nm) or five (395 nm) lasers (BD Biosciences). […]

[2] = test system: platelets in human whole blood; test: Whole blood assay for procoagulant platelet potential, human blood; type: cell-based; settings: for proportion of procoagulant platelets (GSAO+/P-selectin+): thrombin 2 U/mL, collagen 10 μg/mL, mean±SEM, 16-35 donors
From the text: FIG. 12. Gating strategy for detection of procoagulant platelets in human whole blood. A. Platelets were identified as CD41a positive and CD45 negative events. B. Threshold values for P-selectin and GSAO fluorescence were set using agonist stimulated sample stained with control IgG isotype and GSCA respectively. C. At rest, very few platelets show the procoagulant phenotype (P-selectin+/GSAO+).
FIG. 13. Assay for procoagulant platelet potential in human blood. […] The maximal response (17.3±1.3%) was observed after stimulation with combination of thrombin and collagen. Results are mean±SEM from 16-35 donors. One-way ANOVA, […], Holm-Sidak multiple comparisons correction. *, p<0.05; ****, p<0.0001.
as §2
Following collection, tubes were kept upright at room temperature and blood was assayed within 15 min of collection. Incubation and staining steps were performed in a sterile 96-well polypropylene plate. […]
as §3

[3] = test system: P-selectin+ activated platelets; test: DIDS effect on GSAO-AF647 labelling of agonist-stimulated platelets (flow cytometry); type: cell-based, human; settings: thrombin (0.1 units/mL) and collagen (5 μg/mL); 0-200 μM DIDS for 10 min; read-out: half-maximal concentration for inhibition of GSAO labelling of P-selectin+ activated platelets
Method: as §1
The organic anion-transporting polypeptide (OATP) family has been implicated in transport across the plasma membrane of organic anions in the same class as GSAO (Dilda et al., 2009; Dilda et al., 2008). Nine members of the OATP family have been reported in humans (Hagenbuch et al., 2003) and platelets express OATP2B1 (Niessen et al., 2009). DIDS is an inhibitor of OATP class B transporters (Kobayashi et al. 2003) and the present inventors tested its effect on GSAO labelling of agonist-stimulated platelets. DIDS inhibited GSAO labelling of P-selectin+ activated platelets (FIG. 2B) at a half-maximal concentration of ˜30 μM (FIG. 2C). GSAO is retained in the platelet cytoplasm through covalent reaction with closely-spaced protein cysteine thiols (Park et al., 2011) (data not shown).

washed human platelets [4] = test: ABT-737 induced platelet apoptosis and pancaspase inhibition (flow cytometry); type: cell-based
Method: FIG. 4. Labeling with GSAO and exposure of P-selectin distinguishes necrotic from apoptotic platelets. […] The percentage of GSAO+ platelets are graphed with respect to P-selectin exposure. C. Washed human platelets were preincubated with 200 μM of ZVADFMK or vehicle control for 15 min then incubated with 30 μM of ABT-737 for 2 h (part F), or stimulated with thrombin (0.1 units/mL) and collagen (5 μg/mL) for 10 min (part G). Labeling with GSAO-AF647 and exposure of P-selection was measured by flow cytometry. D. Washed human platelets from healthy donors (n=5-11) were untreated or stimulated with thrombin (0.1 units/mL), collagen (5 μg/mL), or thrombin (0.1 units/mL) and collagen (5 μg/mL) for 10 min. […] The error bars are mean±SD.
Bcl-XL dependent apoptosis is involved in regulation of platelet life span, although the role of platelet apoptosis in thrombosis is controversial. In order to determine if GSAO can differentiate agonist-induced necrotic versus apoptotic platelets, platelet apoptosis was triggered using the BH3 mimetic ABT-737. GSAO labelled P-selectin negative apoptotic platelets (FIGS. 4A and B). The GSAO+ population also labeled with a polycaspase marker and annexin V, both indicators of apoptotic cells. […] Washed platelets from healthy donors were untreated or stimulated with thrombin, collagen or thrombin and collagen and examined for apoptosis (GSAO+/P-selectin−) and necrosis (GSAO+/P-selectin+) (FIG. 4D). These agonists trigger platelet necrosis but not apoptosis.

washed human platelets [5] = test: GSAO-AF647 labelling of thrombin and collagen stimulated platelets after preincubation; type: cell-based; settings: CaCl2 preincubation 15 min
Method: FIG. 5. […] A. Washed human platelets were untreated or stimulated with thrombin (0.1 units/mL) and collagen (5 μg/mL) or the mitochondrial membrane disrupter CCCP (4 μM). Mitochondrial transmembrane potential was measured using the cationic dye, JC-1. The ratio of distribution of JC-1 between the mitochondria (red fluorescence) and cytosol (green fluorescence) reflects mitochondrial transmembrane potential. […] B-C. […] E. Washed human platelets were preincubated with CaCl2 for 15 min and then untreated or stimulated with thrombin (0.1 units/mL) and collagen (5 μg/mL).

washed human platelets [6] = test: Direct mitochondrial membrane depolarization and GSAO labelling; type: cell-based; settings: CCCP 4 μM
From the text: FIG. 9. Mitochondrial membrane disruption is not sufficient for GSAO labeling.
The cyclophilin D-dependent regulated necrosis pathway is characterized by agonist stimulation, raised intracellular calcium, formation of the mitochondrial transition pore and loss of mitochondrial membrane potential. Dual agonist stimulation of platelets results in loss of mitochondrial transmembrane potential (FIG. 5A). The onset of mitochondrial depolarisation (FIG. 5B) and phosphatidylserine exposure (FIG. 5C) are coincident with GSAO labeling.
Mitochondrial membrane potential was measured using the JC-1 cationic dye (5,5′,6,6′-tetrachloro-1,1′,3,3′-tetraethyl-imidacarbocyanine iodide, Sigma) (Life Technologies). Washed platelets were incubated with JC-1 (2 μM) for 30 min in the dark at 37° C., washed once and analyzed immediately on a BDFACS Canto II. On some occasions, washed platelets were incubated with the mitochondrial membrane disrupter 2-[2-(3-chlorophenyl)hydrazinylyidene]propanedinitrile (CCCP, 4 μM) for 10 min.

thrombin
time course of GSAO labeling after agonist (stimulated platelets): little GSAO labeling compared with unstimulated platelets
GSAO+ platelets generated by agonist (washed human platelets [1]): minimal GSAO+ platelets
potency as inducer of murine procoagulant platelets (platelets in mouse blood): most potent inducer
potency as inducer of procoagulant platelets in human blood [2]: most potent inducer
proportion of procoagulant platelets (GSAO+/P-selectin+) [2]: 13.2±1.1%

O=S(=O)(O)c1cc(N=C=S)ccc1C=Cc1ccc(N=C=S)cc1S(=O)(=O)O [DIDS]
IC50 [3]: ~30 µM

collagen related peptide
GSAO+ platelets generated by agonist (washed human platelets [1]): majority of the collagen effect was recapitulated
potency as inducer of murine procoagulant platelets (platelets in mouse blood): significantly less potent than thrombin but synergizes with thrombin

CN(C)CC[C@H](CSc1ccccc1)Nc1ccc(S(=O)(=O)NC(=O)c2ccc(N3CCN(Cc4ccccc4-c4ccc(Cl)cc4)CC3)cc2)cc1[N+](=O)[O-] [ABT-737]
platelet phenotype induced (washed human platelets [4]; ABT-737 for 2 h): induced GSAO+/P-selectin− platelets

collagen
time course of GSAO labeling after agonist (stimulated platelets): gradual increase in GSAO labeling over 60 sec
GSAO+ platelets generated by agonist (washed human platelets [1]): moderate proportion
proportion of procoagulant platelets (GSAO+/P-selectin+) [2]: 1.2±0.2%

[Ca] [calcium]
effect of added calcium on GSAO+ agonist stimulated platelets (washed human platelets [5]): promoted

N#CC(C#N)=NNc1cccc(Cl)c1 [CCCP, 2-[2-(3-chlorophenyl)hydrazinylyidene]propanedinitrile]
GSAO labelling after direct mitochondrial membrane depolarization (washed human platelets [6]): does not result in GSAO labelling

COC(=O)C[C@H](NC(=O)[C@H](C)NC(=O)[C@@H](NC(=O)OCc1ccccc1)C(C)C)C(=O)CF [ZVADFMK] (Cbz-Val-Ala-Asp(OMe)-CH2F)
effect on ABT-737 induced GSAO+/P-selectin− platelets (washed human platelets [4]; 200 μM ZVADFMK 15 min, then 30 μM ABT-737 2 h): reduced
effect on GSAO labeling of thrombin and collagen stimulated platelets (washed human platelets [4]; 200 μM ZVADFMK 15 min, then agonists 10 min): no effect
